Literature values as cited in patent US11576377B2, “Antimicrobial mixtures of an essential oil derived bactericide and an essential oil derived fungicide which extend the shelf-life of perishable agricultural commodities” (priority 2013, dated 2023).

Key:
cherry stem = settings: Tsao and Zhou, 2000
peaches = settings: Mari et al. 2008

| Structure (SMILES) | Phytotoxic effect on cherry stem (cherry stem) | Phytotoxic effect on peaches (peaches) |
| --- | --- | --- |
| Cc1ccc(C(C)C)c(O)c1 [thymol] | causes browning of cherry stem | – |
| C=CCN=C=S [allyl isothiocyanate] | – | causes discoloration of peaches |
